In assay [1] the test system is MCF-7. As to conditions: cited from earlier work.
In assay [2] the test system is MDA-MB-231. As to conditions: cited from earlier work.
The test system of a further assay is RPMI 8866. Nature of the assay: MTT assay. Type of assay: cell-based. The note with it: Homo sapiens; RPMI 8866, 24 h of treatment. How it is done:
(§1) The NCI-60 screening protocol utilizes the sulforhodamine B (SRB) assay following 48 h of compound exposure. […] The MTT assay was performed on eleven cancer cell lines: human breast cancer (MDA-MB-231, MCF-7, HCC 1954), human gastric cancer (AGS), human colorectal adenocarcinoma (HT-29, DLD-1, HCT 116), human neuroblastoma (SH SY5Y), and human leukemia (JURKAT, RMPI 8866, K-562) cell lines. The study was conducted in triplicate at the following seven concentrations: 0.62, 1.25, 2.5, 5, 10, 20, and 40 μM.
(§2) The selected cell lines were seeded into 96-well plates and cultured in accordance with the previously described methodology. Then, the cells were treated with all tested compounds and DOX at concentrations of 0.625, 1.25, 2.5, 5.0, 10.0, 20.0, and 40.0 μM for 24 h. A solution of 3-(4,5-dimethyl-2-thiazolyl)-2,5-diphenyl-2H-tetrazolium bromide (Sigma-Aldrich, St. Louis, MO, USA) in phosphate-buffered saline without calcium and magnesium (Corning, Kennebunk, ME, USA) at a concentration of 5 mg/mL was used to carry out MTT assay. After incubation, 20 μL of the prepared MTT solution was added, and then the cells were incubated at 37 °C for two hours. Afterwards, the cells were lysed using 100 μL of lysing buffer (comprising 25 mM HCl, 2% acetic acid, 3% DMF, and 5% SDS, with a pH of 4.7). The absorbance was determined at a wavelength of 570 nm using an Absorbance 96 microplate reader (Byonoy GmbH, Hamburg, Germany).
A general note: Tetrazolium dyes change colour on reduction, which living cells bring about.

Assay [3] has as its system MCF-7. Nature of the assay: MTT assay. As to conditions: Homo sapiens, MCF7; MCF-7, 24 h of treatment. Type of assay: cell-based. How it is done:
as §1, §2

The next assay relates to HCT-116. The assay is described as follows: MTT assay. Format: cell-based. As to conditions: Homo sapiens; HCT-116, 24 h of treatment. How it is done: as §1, §2
For the next assay, the system named is SH SY5Y. Nature of the assay: MTT assay. Format: cell-based. The note with it: Homo sapiens, 24 h of treatment. How it is done: as §1, §2
The test system of assay [4] is MDA-MB-231. The assay is described as follows: MTT assay. Type of assay: cell-based. The note with it: Homo sapiens; MDA-MB-231, 24 h of treatment. How it is done: as §1, §2
A further assay has as its system Jurkat. Nature of the assay: MTT assay. Type of assay: cell-based. As to conditions: Homo sapiens, 24 h of treatment. How it is done:
as §1, §2

In the next assay the test system is HT-29. Nature of the assay: MTT assay. Type of assay: cell-based. The note with it: Homo sapiens; HT-29, 24 h of treatment. As to the method:
as §1, §2

The subject of another assay is DLD-1. The assay is described as follows: MTT assay. Format: cell-based. As to conditions: Homo sapiens; DLD-1, 24 h of treatment. How it is done:
as §1, §2

A further assay relates to AGS. Nature of the assay: MTT assay. Format: cell-based. The note with it: Homo sapiens, 24 h of treatment. How it is done: as §1, §2
The subject of the next assay is HCC-1954. The assay is described as follows: MTT assay. Type of assay: cell-based. As to conditions: Homo sapiens, HCC1954; HCC-1954, 24 h of treatment. How it is done:
as §1, §2

For the next assay, the system named is K562. The assay is described as follows: MTT assay. Format: cell-based. As to conditions: Homo sapiens; K562, 24 h of treatment. As to the method: as §1, §2
Assay [5] concerns MCF-7. Nature of the assay: [3H]-thymidine incorporation assay. Format: cell-based. The note with it: Homo sapiens, MCF7; MCF-7, 24 h of treatment. As to the method:
(§3) Another method of assessing the cytotoxic effects of tested compounds, [^3H]-thymidine incorporation assay, was applied. This method provided the capability to analyze the antiproliferative activity of novel structures on MCF-7 and MDA-MB-231 through their ability to incorporate thymidine into the cells. The acquired results further confirmed the potent activity of the 14b compound as the most prominent structure among the novel compounds (Table 2). The test was carried out in triplicate at concentrations of 5, 15, and 30 μM for the MDA-MB-231 cell line and 1, 5, and 10 μM for the MCF-7 cell line.
(§4) Following the selection of cell lines for further study, the effects of all compounds on cell proliferation were evaluated on MCF-7 and MDA-MB-231 cell lines. Cells were seeded in 24-well plates and cultured as described above. Cells were treated with the compounds at concentrations 1, 5, and 10 μM, and 5, 15, and 30 μM for MCF-7 and MDA-MB-231 cell lines, respectively, for 24 h. Subsequently, 0.5 μCi [^3H]-thymidine was added for 4 h at 37 °C. Then, plates with cells were placed on the ice, the liquid was aspirated, and cells were washed twice with 1mL of 0.05 M Tris-HCl buffer comprising 0.11 M NaCl and precipitated by adding 1 mL per well of 5% trichloroacetic. After precipitation, the cells were dissolved with 1 mL of 0.1 M NaOH with 1% SDS (Sigma-Aldrich, St. Louis, MO, USA) at room temperature (RT). The cell lysates were transferred into scintillation vials containing 2 mL of scintillation fluid (Ultima Gold™ XR, PerkinElmer, MA, USA), and cell-associated radioactivity was measured using a Scintillation Counter 1900 TR, TRI-CARB (Packard, Perkin Elmer, Inc., San Jose, CA, USA). The [^3H]-thymidine uptake was expressed as a percentage of the control value.

Assay [6] deals with MDA-MB-231. The assay is described as follows: [3H]-thymidine incorporation assay. Type of assay: cell-based. As to conditions: Homo sapiens; MDA-MB-231, 24 h of treatment. How it is done:
as §3, §4
A general note: Incorporation of labelled thymidine or its analogues reports DNA synthesis.

The test system of assay [7] is reactive oxygen species in MDA-MB-231 cells. The assay is described as follows: H2DCFDA and DAPI double staining. Format: cell-based, human. The note with it: MDA-MB-231, 5 and 10 μM, one hour. As to the method: (§5) The double staining method was applied to analyze novel compounds’ effects on the generation of reactive oxygen species. The first dye, H2DCFDA, after conversion to DCF, serves as an indicator of oxidative stress (green fluorescence), while the second one, known as DAPI, was applied to showcase nuclear genetic material of MCF-7 and MDA-MB-231 breast cancer cells (blue fluorescence). The concentrations of compounds were 1 and 5 μM for the MCF-7 cell line and 5 and 10 μM for the MDA-MB-231 cell line. The incubation time after treatment was one hour in both cell lines.
(§6) The influences of 2b, 12b, 14b, and doxorubicin (1 and 5 µM and 5 and 10 µM for MCF-7 and MDA-MB-231 cell lines, respectively) on the generation of reactive oxygen species (ROS) were analyzed. Cells were seeded in 6-well culture plates at 1 × 10^5 cells per well in 1 mL of medium and then treated with compounds for 1 h and then washed with PBS. Double staining was conducted with 20 µM 2′,7′-dichlorodihydrofluorescein diacetate (H2DCFDA) reagent (Thermo Fisher Scientific, Eugene, OR, USA), which is colorless, and is cleaved by intracellular esterases and oxidized to the highly fluorescent 2′,7′-dichlorofluorescein (DCF), and 10 µg/mL of the fluorescent dye 4′,6-diamidino-2-phenylindole (DAPI) (Sigma-Aldrich, St. Louis, MO, USA), which visualizes the nuclear DNA of cells. A Nikon ECLIPSE Ti fluorescence microscope (Nikon, Tokyo, Japan) was used to obtain results which were analyzed using ImageJ software 1.54k (Bethesda, MD, USA). The fluorescence intensity of the DCF reagent was evaluated relative to the control. The number of analyzed cells was above 100.

Assay [8] deals with reactive oxygen species in MCF-7 cells. Nature of the assay: H2DCFDA and DAPI double staining. The note with it: MCF-7, 1 and 5 μM, one hour. Type of assay: cell-based, human. As to the method:
as §5, §6

Counter-ions that a name gives are not always drawn. Like-named read-outs stand apart in the source and are kept apart here.

On to `N.N.[Cl][Pt][Cl]` [cisplatin], for which the IC50 in the assay on MCF-7 [1] (MCF-7 ref 39, read-out: concentration required to inhibit more than 50%) is ~80000 nM; in the assay on MDA-MB-231 [2] (MDA-MB-231 ref 39, read-out: concentration required to inhibit more than 50%), ~80000 nM.

Regarding `CC(C)C(C(=O)O)N1C(=O)/C(=C/C(Cl)=C/c2ccc([N+](=O)[O-])cc2)SC1=S` (stereo not shown) [substructure B, 2-{5-[(Z,2Z)-2-Chloro-3-(4-nitrophenyl)-2-propenylidene]-4-oxo-2-thioxothiazolidin-3-yl}-3-methylbutanoic Acid], the IC50 with MCF-7 [1] (MCF-7 ref 4, read-out: IC50) is 5020 nM; in the assay on MDA-MB-231 [2] (MDA-MB-231 ref 4, read-out: IC50), 15200 nM.

In the case of `COc1cccc2c1C(=O)c1c(O)c3c(c(O)c1C2=O)C[C@@](O)(C(=O)CO)C[C@@H]3O[C@H]1C[C@H](N)[C@H](O)[C@H](C)O1` [DOX, Doxorubicin hydrochloride, reference compound], the IC50 with RPMI 8866 was found to be 380 nM; in the assay with MCF-7 [3], 730 nM; in the assay on HCT-116, 16800 nM; in the assay with SH SY5Y it was 39900 nM; with MDA-MB-231 [4], 7530 nM; with Jurkat, 720 nM. Also, the IC50 stood at 730 nM in the assay with HT-29; 2830 nM with DLD-1; 1090 nM in the assay with AGS; 3140 nM in the assay on HCC-1954; 430 nM with K562; 1780 nM in the assay with MCF-7 [5]. Further, in the assay with MDA-MB-231 [6], the IC50 came out at 360 nM. Besides, the “generation of reactive oxygen species” value in assay [7] and in [8] was “fewer effects on reactive oxygen species generation” each time.

The values above are taken from paper PMC12655351, “Synthesis and Anticancer Activity Evaluation of New 5-((5-Nitrofuran-2-yl)allylidene)-2-thioxo-4-thiazolidinones” (Pharmaceuticals, 2025).
